The values that follow come from publication PMC8973350, “4-Anilinoquinazoline-based benzenesulfonamides as nanomolar inhibitors of carbonic anhydrase isoforms I, II, IX, and XII: design, synthesis, in-vitro, and in-silico biological studies” (Journal of Enzyme Inhibition and Medicinal Chemistry, 2022).

One series has as its target hCA XII (Homo sapiens, UniProt O43570). Put plainly: stopped flow CO2 hydrase assay, hCA XII. Type of series: biochemical. The settings on record: errors ±5–10% of the stated values. The procedure:
(§1) The activity of the CA-catalyzed CO2 hydration reaction was evaluated employing an applied photophysics stopped-flow instrument. […] A minimum of six traces of the starting 5–10% of the reaction were analysed to measure the initial velocity for each inhibitor. In a similar manner, the uncatalyzed rates were evaluated and subtracted from the overall calculated rates. Stock inhibitor solutions (10 mM) were prepared in distilled–deionized water, and dilutions up to 0.01 nM were prepared with distilled–deionized water after that. Preincubation of the inhibitor enzyme solutions at room temperature to enable the formation of the E-I complex was carried out for 15 min before starting the experiment. The inhibition constants were determined employing PRISM 3, while the kinetic parameters for the uninhibited enzymes were calculated using Lineweaver-Burk plots that comprise the mean of at least three separate measurements with errors ranging to ±5–10% of the stated values[37]^,[38].
(§2) This panel comprised the two ubiquitously expressed cytosolic hCA I and II isoforms, along with the two tumour-related transmembrane hCA IX and XII isoforms.

The target in a further series is hCA IX (Homo sapiens, UniProt Q16790). As to the kind of experiment: stopped flow CO2 hydrase assay, hCA IX. Type of series: biochemical. Conditions: errors ±5–10% of the stated values. The procedure: as §1, §2
For the next series, the target named is hCA I (Homo sapiens, UniProt P00915). Put plainly: stopped flow CO2 hydrase assay, hCA I. Format: biochemical. Conditions: for folds higher potency against hCA I when compared to the standard (AAZ, V): relative to AAZ; for Ki: stopped flow CO2 hydrase assay, errors ±5–10% of the stated values. On the procedure: as §1, §2
Chain of hCA I (P00915 whole entry, canonical isoform): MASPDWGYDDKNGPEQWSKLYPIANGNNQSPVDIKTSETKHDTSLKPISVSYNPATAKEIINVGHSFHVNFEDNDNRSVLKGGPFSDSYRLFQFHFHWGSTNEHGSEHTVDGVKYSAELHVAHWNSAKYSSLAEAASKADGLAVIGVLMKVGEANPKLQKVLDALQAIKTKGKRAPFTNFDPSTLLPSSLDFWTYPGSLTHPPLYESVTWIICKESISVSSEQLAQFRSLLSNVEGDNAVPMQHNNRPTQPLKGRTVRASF
For another series, the target named is hCA II (Homo sapiens, UniProt P00918). As to the kind of experiment: stopped flow CO2 hydrase assay, hCA II. Format: biochemical. The settings on record: for folds of potency compared to AAZ against isoform hCA II: relative to AAZ (12.1 nM); for Ki: stopped flow CO2 hydrase assay, errors ±5–10% of the stated values; for inhibitory activity against hCA II (in words): compared to their para-sulphonamide analogues. On the procedure:
as §1, §2

Chain of hCA XII (O43570 25-354): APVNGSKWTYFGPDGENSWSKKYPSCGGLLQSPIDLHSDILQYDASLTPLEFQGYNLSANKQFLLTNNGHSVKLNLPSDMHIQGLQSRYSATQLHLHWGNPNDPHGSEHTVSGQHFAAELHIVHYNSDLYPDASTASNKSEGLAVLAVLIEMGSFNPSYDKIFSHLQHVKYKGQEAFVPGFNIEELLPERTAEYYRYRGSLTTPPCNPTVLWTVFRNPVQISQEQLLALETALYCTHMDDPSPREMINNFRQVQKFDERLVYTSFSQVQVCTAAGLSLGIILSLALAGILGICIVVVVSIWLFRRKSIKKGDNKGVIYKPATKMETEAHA

Broadly, the Ki is the equilibrium dissociation constant of an inhibitor or competing ligand from its target. A high value points to lower affinity. `NS(=O)(=O)c1ccc(Nc2ncnc3ccc(Br)cc23)cc1` [Compound 3a]: the Ki on hCA XII came out at 46.5 nM; on hCA IX it was 174 nM; at hCA I, 89.4 nM; at hCA II it was 8.7 nM. Further, at hCA I, the “folds higher potency against hCA I when compared to the standard (AAZ, V)” value (shortened to “folds higher potency against hCA I when”) is 2.8 folds. In addition, at hCA II, the “folds of potency compared to AAZ against isoform hCA II” value (“folds of potency compared to AAZ” for short) is given as 1.4 folds.
Take `NS(=O)(=O)c1cccc(Nc2ncnc3ccc(Br)cc23)c1` [Compound 3b]: the Ki at hCA XII worked out at 39.4 nM; at hCA IX, 95.3 nM; at hCA I, 7100 nM; at hCA II it was 5760 nM. For the same compound, on hCA I, the “inhibitory activity against hCA I (in words)” value is given as “lost all activity”. The “inhibitory activity against hCA II (in words)” value against hCA II is “loss of activity”.
In the case of `NS(=O)(=O)c1ccc(Nc2ncnc3ccc(-c4ccccc4)cc23)cc1` [Compound 4a, 4-((6-phenylquinazolin-4-yl)amino)benzenesulfonamide], the Ki was 65.7 nM at hCA XII, 180 nM on hCA IX, 600 nM on hCA I and 2.4 nM on hCA II. Further, on hCA II, the “folds of potency compared to AAZ” value is 5 folds.
For `NS(=O)(=O)c1ccc(Nc2ncnc3ccc(-c4ccc(C=O)cc4)cc23)cc1` [Compound 4b, 4-((6–(4-formylphenyl)quinazolin-4-yl)amino)benzenesulfonamide], the values for the Ki on hCA XII, on hCA IX and at hCA I were 67.4 nM, 86.9 nM and 651 nM, respectively.
Turning to `NS(=O)(=O)c1ccc(Nc2ncnc3ccc(-c4ccc(F)cc4)cc23)cc1` [Compound 4c, 4-((6–(4-fluorophenyl)quinazolin-4-yl)amino)benzenesulfonamide], the Ki on hCA XII is 93 nM; on hCA IX it was 560 nM; on hCA I, 931 nM; on hCA II, 47.1 nM.
The matching figures for `NS(=O)(=O)c1ccc(Nc2ncnc3ccc(-c4cccc([N+](=O)[O-])c4)cc23)cc1` [Compound 4d, 4-((6–(3-nitrophenyl)quinazolin-4-yl)amino)benzenesulfonamide]: 90.7 nM, 265 nM, 588 nM and 55.7 nM.
Take `COc1ccc(-c2ccc3ncnc(Nc4ccc(S(N)(=O)=O)cc4)c3c2)cc1` [Compound 4e, 4-((6–(4-methoxyphenyl)quinazolin-4-yl)amino)benzenesulfonamide]: the Ki is 77 nM at hCA XII, 86.9 nM at hCA IX, 91.2 nM on hCA I and 4.6 nM on hCA II. Moreover, the “folds higher potency against hCA I when” value at hCA I stood at 2.7 folds. Further, the “folds of potency compared to AAZ” value on hCA II came to 2.6 folds.
On to `NS(=O)(=O)c1ccc(Nc2ncnc3ccc(-c4ccsc4)cc23)cc1` [Compound 4f, 4-((6-(thiophen-3-yl)quinazolin-4-yl)amino)benzenesulfonamide], for which the Ki at hCA XII was found to be 89.5 nM; on hCA IX, 86.5 nM; on hCA I it was 60.9 nM; at hCA II it was 37.1 nM. Also, the “folds higher potency against hCA I when” value at hCA I amounted to 4 folds.
Take `NS(=O)(=O)c1cccc(Nc2ncnc3ccc(-c4ccc(F)cc4)cc23)c1` [Compound 4g, 3-((6–(4-fluorophenyl)quinazolin-4-yl)amino)benzenesulfonamide]: the Ki on hCA XII worked out at 30.5 nM; on hCA IX, 229 nM; at hCA I it was 3130 nM; at hCA II, 231 nM.
The matching figures for `NS(=O)(=O)c1ccc(Nc2ncnc3ccc(-c4ccc(N5CCOCC5)cc4)cc23)cc1` [Compound 4h, 4-((6–(4-morpholinophenyl)quinazolin-4-yl)amino)benzenesulfonamide]: 49.8 nM, 337 nM, 548 nM and 112 nM.
On the same counts, the results for `NS(=O)(=O)c1cccc(Nc2ncnc3ccc(-c4ccc(C=O)o4)cc23)c1` [Compound 4i, 3-((6–(5-formylfuran-2-yl)quinazolin-4-yl)amino)benzenesulfonamide] are 52.7 nM, 488 nM, 5580 nM and 2420 nM.
The matching figures for `NS(=O)(=O)c1ccc(Nc2ncnc3cc(-c4cccc(O)c4)ccc23)cc1` [Compound 4j, 4-((7–(3-hydroxyphenyl)quinazolin-4-yl)amino)benzenesulfonamide]: 66.7 nM, 245 nM, 361 nM and 66.3 nM.
For the compound `NS(=O)(=O)c1cccc(Nc2ncnc3cc(-c4cccc(O)c4)ccc23)c1` [Compound 4k, 3-((7–(3-hydroxyphenyl)quinazolin-4-yl)amino)benzenesulfonamide], the Ki at hCA XII is 69.7 nM; at hCA IX it was 90.3 nM; at hCA I, 4680 nM; at hCA II, 2520 nM. In addition, the “inhibitory activity against hCA II (in words)” value against hCA II is “loss of activity”.
The term melting point denotes the temperature, or range, at which the solid turns liquid. `NS(=O)(=O)c1cccc(Nc2ncnc3ccc(-c4ccccc4)cc23)c1` [Compound 4l, 3-((6-phenylquinazolin-4-yl)amino)benzenesulfonamide] registered a melting point of 327 to 329 °C. For the same compound, the Ki on hCA XII was determined as 89.4 nM. Besides, the Ki on hCA IX was 88.8 nM. In addition, affinity on hCA I was put at a Ki of 6570 nM. At hCA II, the “inhibitory activity against hCA II (in words)” value is given as “loss of activity” and the Ki amounted to 678 nM.
